The experiment relates to RS cells [RS 세포]. Nature of the experiment: MTT assay of UV (UVC) irradiation-induced cell damage in cultured human RS cells pretreated with the substance. Format: cell-based. The settings on record: UV 14 J/m2; for resistance to UV-induced cell damage compared with cells cultured without addition (in words): EPH 1/10 or 1/100 (v/v), 1 day, 3 days after irradiation (Fig. 2).

Bounds are passed on as bounds.

Turning to `OCCOc1ccccc1` [페녹시에탄올], the “resistance to UV-induced cell damage compared with cells cultured without addition (in words)” value is, setting by setting: (listed as EPH) “높은 저항성을 나타내었다”; (listed as 하이솔브 EPH) “높은 저항성을 나타낸다”. Further, where the note is “phenoxyethanol added at 1/10 - 1/100 (v/v), 1 day pretreatment, MTT 3 days after irradiation”, the “resistance to cell damage by UV irradiation, compared with no addition” value is on record as at least 2 fold.

For the origin of these results see KR20110126596A, “자외선 방지제” (고쿠리츠 다이가쿠 호우징 지바 다이가쿠, priority 2008, dated 2010).
